What all share (assay type): functional
The subject of one assay is MDA-MB-468. In words: Growth inhibition of human MDA-MB-468 cells assessed as cell growth at 10^-7 M incubated for 48 hrs by sulforhodamine B assay relative to control. The conditions noted are these: MDA-MB-468, 48 h, read-out: Activity. (Sulforhodamine B stains cellular protein and so reports cell mass.)
The next assay concerns UO-31. In words: Growth inhibition of human UO31 cells assessed as cell growth at 10^-5 M incubated for 48 hrs by sulforhodamine B assay relative to control. The conditions noted are these: UO-31, 48 h, read-out: Activity.
The subject of another assay is NCI-H460. In words: Growth inhibition of human NCI-H460 cells assessed as cell growth at 10^-8 M incubated for 48 hrs by sulforhodamine B assay relative to control. The conditions noted are these: NCI-H460, 48 h, read-out: Activity.
Another assay concerns MCF7. In words: Growth inhibition of human MCF7 cells assessed as cell growth at 10^-4 M incubated for 48 hrs by sulforhodamine B assay relative to control. To be noted: MCF7, 48 h, read-out: Activity.

With `CCCCOc1nc2ccccc2cc1C1CNC(=O)c2ccccc2N1` (centres undefined), the growth at 0.1 µM with MDA-MB-468 came to 93%. For the same compound, the growth at 10 µM in the assay on UO-31 is 31%. Besides, in the assay with NCI-H460, the growth at 0.01 µM came to 101%. Further, the growth at 100 µM in the assay with MCF7 is -40%.

For the origin of these results see ChEMBL document CHEMBL4138146, “A Schmidt rearrangement-mediated synthesis of novel tetrahydro-benzo[1,4]diazepin-5-ones as potential anticancer and antiprotozoal agents” (Eur J Med Chem, 2017).
